Consider 5 compounds from ChEMBL document CHEMBL5370683, “Peptide-to-Small Molecule: Discovery of Non-Covalent, Active-Site Inhibitors of β-Herpesvirus Proteases” (ACS Med Chem Lett, 2023).

Peptide text beside a SMILES is read from it.

The IC50 is the concentration that gives 50% inhibition. Read a low IC50 as greater potency. As a reminder, the Papp A→B is how fast a substance crosses the layer from the apical side. The term CC50 denotes the concentration giving 50% cytotoxicity. In general, EC50 refers to the midpoint of the concentration-response curve.

Series [1] in a line: Inhibition of N-terminal 6 His-tagged HHV6 protease (2 to 230 residues) expressed in Escherichia coli BL21 cells using 5FAM-KPSILNASLTPETVKK as peptide substrate incubated for 3 hrs by fluorescence based analysis. Also on record: species or system Human betaherpesvirus 6.
Series [2] can be described thus: Apparent permeability across apical to basolateral side in LLC-PK1 cells at 2 uM incubated for 2 hrs by LC/MS/MS method. The class given is ADME, cell-based, Sus scrofa. The conditions noted are these: pig.
The nature of series [3]: Cytotoxicity against HFF cells assessed as inhibition in cell viability incubated for 5 days by luminescence based analysis. The conditions noted are these: human, time 5 day. Format: toxicity.
The test system of the next series is Human betaherpesvirus 5. In words: Antiviral activity against HCMV infected in HFF cells assessed as reduction in viral replication. The conditions noted are these: Human betaherpesvirus 5, HFF. The class given is functional, organism-based.
Series [4] is described as follows: Inhibition of amino terminal GST tagged HCMV protease (1 to 256 residues) expressed in Escherichia coli BL21 (DE3) cells using 5-carboxyfluorescein [FAM]-RGVVNASSRLAK as peptide substrate incubated for 3 hrs by fluorescence based analysis. Also on record: species or system Human betaherpesvirus 5.
Series [5] is described as follows: Inhibition of amino terminal GST tagged HCMV protease R9A mutant (1 to 256 residues) expressed in Escherichia coli BL21 (DE3) cells using 5-carboxyfluorescein [FAM]-RGVVNASSRLAK as peptide substrate incubated for 3 hrs by fluorescence based analysis. Also on record: species or system Human betaherpesvirus 5.
Series [6] is described as follows: Inhibition of N-terminal 6 His-tagged HHV6 protease R9A mutant (2 to 230 residues) expressed in Escherichia coli BL21 cells using 5FAM-KPSILNASLTPETVKK as peptide substrate incubated for 3 hrs by fluorescence based analysis. Also on record: species or system Human betaherpesvirus 6.
The nature of series [7]: Inhibition of N-terminal 6 His-tagged HHV6 protease F10A mutant (2 to 230 residues) expressed in Escherichia coli BL21 cells using 5FAM-KPSILNASLTPETVKK as peptide substrate incubated for 3 hrs by fluorescence based analysis. Also on record: species or system Human betaherpesvirus 6.
Series [8] can be described thus: Inhibition of amino terminal GST tagged HCMV protease F10A mutant (1 to 256 residues) expressed in Escherichia coli BL21 (DE3) cells using 5-carboxyfluorescein [FAM]-RGVVNASSRLAK as peptide substrate incubated for 3 hrs by fluorescence based analysis. Also on record: species or system Human betaherpesvirus 5.
Series [9] in a line: Inhibition of N-terminal 6 His-tagged HHV6 protease L11A mutant (2 to 230 residues) expressed in Escherichia coli BL21 cells using 5FAM-KPSILNASLTPETVKK as peptide substrate incubated for 3 hrs by fluorescence based analysis. Also on record: species or system Human betaherpesvirus 6.
A short description of series [10]: Inhibition of amino terminal GST tagged HCMV protease L11A mutant (1 to 256 residues) expressed in Escherichia coli BL21 (DE3) cells using 5-carboxyfluorescein [FAM]-RGVVNASSRLAK as peptide substrate incubated for 3 hrs by fluorescence based analysis. Also on record: species or system Human betaherpesvirus 5.
Series [11] is described as follows: Inhibition of amino terminal GST tagged HCMV protease P12A mutant (1 to 256 residues) expressed in Escherichia coli BL21 (DE3) cells using 5-carboxyfluorescein [FAM]-RGVVNASSRLAK as peptide substrate incubated for 3 hrs by fluorescence based analysis. Also on record: species or system Human betaherpesvirus 5.
A short description of series [12]: Inhibition of N-terminal 6 His-tagged HHV6 protease P12A mutant (2 to 230 residues) expressed in Escherichia coli BL21 cells using 5FAM-KPSILNASLTPETVKK as peptide substrate incubated for 3 hrs by fluorescence based analysis. Also on record: species or system Human betaherpesvirus 6.

On to `Cc1ccc([C@@H](c2cn(C3CCCC3)nc2-c2ccccc2C)n2cccc(N3C[C@H](C(=O)NC45CCC(CC4)NC5=O)N(C)C3=O)c2=O)cc1`, for which the IC50 was 330 nM in series [1] and 2500 nM in series [4]. Also, in series [2], the Papp A→B at 2 h, 2 µM turned out to be 1.3 ×10⁻⁶ cm/s. Moreover, the CC50 at 120 h in series [3] stood at 51000 nM. Also, the EC50 in the series with Human betaherpesvirus 5 came out at 60000 nM.

As for `CC[C@H](C)[C@H](NC(=O)[C@H](Cc1ccccc1)NC(C)=O)C(=O)N[C@H](C(=O)NCC(=O)N[C@@H](Cc1c[nH]cn1)C(=O)N[C@@H](Cc1ccc(O)cc1)C(=O)N[C@@H](Cc1c[nH]c2ccccc12)C(=O)N[C@H](C(=O)N[C@@H](C)C(=O)N[C@@H](Cc1ccccc1)C(=O)N[C@@H](CC(C)C)C(=O)N1CCC[C@H]1C(=O)N[C@@H](CS)C(=O)NCC(N)=O)C(C)C)[C@@H](C)O` (Ac-FITGHYWVAFLPCG-NH2), the IC50 in [5] is 92 nM; in series [6] it was less than 76 nM.

For the compound `CC[C@H](C)[C@H](NC(=O)[C@H](Cc1ccccc1)NC(C)=O)C(=O)N[C@H](C(=O)NCC(=O)N[C@@H](Cc1c[nH]cn1)C(=O)N[C@@H](Cc1ccc(O)cc1)C(=O)N[C@@H](Cc1c[nH]c2ccccc12)C(=O)N[C@H](C(=O)N[C@@H](CCCNC(=N)N)C(=O)N[C@@H](C)C(=O)N[C@@H](CC(C)C)C(=O)N1CCC[C@H]1C(=O)N[C@@H](CS)C(=O)NCC(N)=O)C(C)C)[C@@H](C)O` (Ac-FITGHYWVRALPCG-NH2), the IC50 in [7] and in [8] was less than 76 nM throughout.

On to `CC[C@H](C)[C@H](NC(=O)[C@H](Cc1ccccc1)NC(C)=O)C(=O)N[C@H](C(=O)NCC(=O)N[C@@H](Cc1c[nH]cn1)C(=O)N[C@@H](Cc1ccc(O)cc1)C(=O)N[C@@H](Cc1c[nH]c2ccccc12)C(=O)N[C@H](C(=O)N[C@@H](CCCNC(=N)N)C(=O)N[C@@H](Cc1ccccc1)C(=O)N[C@@H](C)C(=O)N1CCC[C@H]1C(=O)N[C@@H](CS)C(=O)NCC(N)=O)C(C)C)[C@@H](C)O` (Ac-FITGHYWVRFAPCG-NH2), for which the IC50 in series [9] and in [10] was less than 76 nM each time.

For `CC[C@H](C)[C@H](NC(=O)[C@H](Cc1ccccc1)NC(C)=O)C(=O)N[C@H](C(=O)NCC(=O)N[C@@H](Cc1c[nH]cn1)C(=O)N[C@@H](Cc1ccc(O)cc1)C(=O)N[C@@H](Cc1c[nH]c2ccccc12)C(=O)N[C@H](C(=O)N[C@@H](CCCNC(=N)N)C(=O)N[C@@H](Cc1ccccc1)C(=O)N[C@@H](CC(C)C)C(=O)N[C@@H](C)C(=O)N[C@@H](CS)C(=O)NCC(N)=O)C(C)C)[C@@H](C)O` (Ac-FITGHYWVRFLACG-NH2), the IC50 in [11] and in [12] was less than 76 nM each time.
